{
  "source": "paper PMC5601486",
  "about": "“Identification of 4-phenylquinolin-2(1H)-one as a specific allosteric inhibitor of Akt” (Scientific Reports, 2017)",
  "key": {"DRAK2": {"tested_on": "DRAK2", "test": "KINOMEscan", "conditions": "50000 nM", "description": "KINOMEscan™ selectivity screen\n(§1) The assay was perfor med at DiscoveRx Corporation according the methods published previously5. Briefly, Kinase-tagged T7 phage strains were grown in parallel in an E. coli host derived from the BL21 strain. E. coli were grown to log-phase and infected with T7 phage from a frozen stock and incubated with shaking at 32°C until lysis (90-150 minutes). The kinases were produced in HEK-293 cells and subsequently tagged with DNA for qPCR detection. Streptavidin-coated magnetic beads were treated with biotinylated small molecule ligands to generate affinity resins for kinase\n(§2) inhibitor or DMSO control was performed in polypropylene 384-well plates for 1 hr at room temperature. After wash with PBS buffer containing 0.05% Tween 20, the beads were incubated in elution buffer (PBS containing 0.05 % Tween 20 and 0.5 μM non-biotinylated affinity ligand) for 30 minutes at room temperature. The kinase concentration in the eluates was measured by qPCR."}, "CAMK1": {"tested_on": "CAMK1", "test": "KINOMEscan", "conditions": "50000 nM", "description": "KINOMEscan™ selectivity screen\nas §1, §2"}, "MEK4": {"tested_on": "MEK4", "test": "KINOMEscan", "conditions": "50000 nM", "description": "KINOMEscan™ selectivity screen\nas §1, §2"}, "WEE1": {"tested_on": "WEE1", "test": "KINOMEscan", "conditions": "50000 nM", "description": "KINOMEscan™ selectivity screen\nas §1, §2"}, "ERN1": {"tested_on": "ERN1", "test": "KINOMEscan", "conditions": "50000 nM", "description": "KINOMEscan™ selectivity screen\n(§3) Briefly, Kinase-tagged T7 phage strains were grown in parallel in an E. coli host derived from the BL21 strain. E. coli were grown to log-phase and infected with T7 phage from a frozen stock and incubated with shaking at 32°C until lysis (90-150 minutes). The kinases were produced in HEK-293 cells and subsequently tagged with DNA for qPCR detection. Streptavidin-coated magnetic beads were treated with biotinylated small molecule ligands to generate affinity resins for kinase\nas §2"}, "[1]": {"tested_on": "ABL1(H396P)-nonphosphorylated", "test": "KINOMEscan", "conditions": "50000 nM", "description": "KINOMEscan™ selectivity screen\nas §1, §2"}, "DMPK": {"tested_on": "DMPK", "test": "KINOMEscan", "conditions": "50000 nM", "description": "KINOMEscan™ selectivity screen\nas §1, §2"}, "CSNK1D": {"tested_on": "CSNK1D", "test": "KINOMEscan", "conditions": "50000 nM", "description": "KINOMEscan™ selectivity screen\nas §1, §2"}, "BRAF(V600E)": {"tested_on": "BRAF(V600E)", "test": "KINOMEscan", "conditions": "50000 nM", "description": "KINOMEscan™ selectivity screen\nas §1, §2"}, "DAPK1": {"tested_on": "DAPK1", "test": "KINOMEscan", "conditions": "50000 nM", "description": "KINOMEscan™ selectivity screen\nas §1, §2"}, "ULK3": {"tested_on": "ULK3", "test": "KINOMEscan", "conditions": "50000 nM", "description": "KINOMEscan™ selectivity screen\nas §1, §2"}, "TESK1": {"tested_on": "TESK1", "test": "KINOMEscan", "conditions": "50000 nM", "description": "KINOMEscan™ selectivity screen\nas §1, §2"}, "AXL": {"tested_on": "AXL", "test": "KINOMEscan", "conditions": "50000 nM", "description": "KINOMEscan™ selectivity screen\nas §1, §2"}, "MST1": {"tested_on": "MST1", "test": "KINOMEscan", "conditions": "50000 nM", "description": "KINOMEscan™ selectivity screen\nas §1, §2"}, "ERK1/2": {"tested_on": "ERK1/2", "test": "Western blot of ERK1/2 phosphorylation", "assay_type": "cell-based, Mouse", "conditions": "Neuro 2A cells", "experimental": "Neuro 2A cells were seeded in 12-well plates in DMEM containing 5% FBS for 24 hr.\nAfter overnight serum starvation (in 0% FBS DMEM), cells were incubated for 30 min at 37 °C with G7 or LY294002 or Torin 1 (Sigma Aldrich) at various concentrations, or DMSO control. IGF-1 was added to each well at a final concentration of 100 ng/mL. After 30-min incubation cells were washed with cold PBS and lysed with 50 µL lysis buffer containing 1% Triton X-100 and protease/phosphatase inhibitors (Cell Signaling Technology) or RIPA buffer (Santa Cruz Biotech). Samples were electrophoresed in 4–12% Bis-Tris gels (Life Technologies) at 150 V using MOPS SDS running buffer. Proteins were transferred electrophoretically to a PVDF or nitrocellulose membrane. For detection of cleaved […]\ncaspase 3 a Trans-Blot Turbo Transfer System (Bio-Rad, 25 V for 25 min) with PVDF membrane were used. […]\nanti- GAPDH (14C10) antibody (#2118) (all antibodies were from Cell Signaling Technology unless indicated, 1:1000 dilution was used) at 4°C overnight, washed three times with TBS-T, then incubated with peroxidase-conjugated secondary antibody (Sigma-Aldrich) for 1 hr at room temperature. […] Band intensity was quantitated using Kodak 1D imaging analysis software. […]"}, "CASK": {"tested_on": "CASK", "test": "KINOMEscan", "conditions": "50000 nM", "description": "KINOMEscan™ selectivity screen\nas §3, §2"}, "STK36": {"tested_on": "STK36", "test": "KINOMEscan", "conditions": "50000 nM", "description": "KINOMEscan™ selectivity screen\nas §1, §2"}, "PIK3CA(E545K)": {"tested_on": "PIK3CA(E545K)", "test": "KINOMEscan", "conditions": "50000 nM", "description": "KINOMEscan™ selectivity screen\nas §1, §2"}, "ERK3": {"tested_on": "ERK3", "test": "KINOMEscan", "conditions": "50000 nM", "description": "KINOMEscan™ selectivity screen\nas §3, §2"}, "SGK": {"tested_on": "SGK", "test": "KINOMEscan", "conditions": "50000 nM", "description": "KINOMEscan™ selectivity screen\nas §1, §2"}, "[2]": {"tested_on": "EGFR(L747-E749del, A750P)", "test": "KINOMEscan", "conditions": "50000 nM", "description": "KINOMEscan™ selectivity screen\nas §1, §2"}, "MST1R": {"tested_on": "MST1R", "test": "KINOMEscan", "conditions": "50000 nM", "description": "KINOMEscan™ selectivity screen\nas §1, §2"}, "PDPK1": {"tested_on": "PDPK1", "test": "KINOMEscan", "conditions": "50000 nM", "description": "KINOMEscan™ selectivity screen\nas §1, §2"}, "KIT(V559D)": {"tested_on": "KIT(V559D)", "test": "KINOMEscan", "conditions": "50000 nM", "description": "KINOMEscan™ selectivity screen\nas §3, §2"}, "PLK4": {"tested_on": "PLK4", "test": "KINOMEscan", "conditions": "50000 nM", "description": "KINOMEscan™ selectivity screen\nas §1, §2"}, "LIMK1": {"tested_on": "LIMK1", "test": "KINOMEscan", "conditions": "50000 nM", "description": "KINOMEscan™ selectivity screen\nas §1, §2"}, "BRAF": {"tested_on": "BRAF", "test": "KINOMEscan", "conditions": "50000 nM", "description": "KINOMEscan™ selectivity screen\nas §1, §2"}, "PAK3": {"tested_on": "PAK3", "test": "KINOMEscan", "conditions": "50000 nM", "description": "KINOMEscan™ selectivity screen\nas §1, §2"}, "KIT(A829P)": {"tested_on": "KIT(A829P)", "test": "KINOMEscan", "conditions": "50000 nM", "description": "KINOMEscan™ selectivity screen\nas §1, §2"}, "CSF1R-autoinhibited": {"tested_on": "CSF1R-autoinhibited", "test": "KINOMEscan", "conditions": "50000 nM", "description": "KINOMEscan™ selectivity screen\nas §1, §2"}, "EGFR(L861Q)": {"tested_on": "EGFR(L861Q)", "test": "KINOMEscan", "conditions": "50000 nM", "description": "KINOMEscan™ selectivity screen\nas §3, §2"}, "[3]": {"tested_on": "RPS6KA4(Kin.Dom.1-N-terminal)", "test": "KINOMEscan", "conditions": "50000 nM", "description": "KINOMEscan™ selectivity screen\nas §3, §2"}, "AURKB": {"tested_on": "AURKB", "test": "KINOMEscan", "conditions": "50000 nM", "description": "KINOMEscan™ selectivity screen\nas §1, §2"}, "GRK7": {"tested_on": "GRK7", "test": "KINOMEscan", "conditions": "50000 nM", "description": "KINOMEscan™ selectivity screen\nThe assay was perfor med at DiscoveRx Corporation according the methods published previously5. […] The kinases were produced in HEK-293 cells and subsequently tagged with DNA for qPCR detection. Streptavidin-coated magnetic beads were treated with biotinylated small molecule ligands to generate affinity resins for kinase\nas §2"}, "[4]": {"tested_on": "ABL1(F317L)-phosphorylated", "test": "KINOMEscan", "conditions": "50000 nM", "description": "KINOMEscan™ selectivity screen\nas §1, §2"}, "MAP3K2": {"tested_on": "MAP3K2", "test": "KINOMEscan", "conditions": "50000 nM", "description": "KINOMEscan™ selectivity screen\nas §1, §2"}, "HCK": {"tested_on": "HCK", "test": "KINOMEscan", "conditions": "50000 nM", "description": "KINOMEscan™ selectivity screen\nas §3, §2"}, "SIK2": {"tested_on": "SIK2", "test": "KINOMEscan", "conditions": "50000 nM", "description": "KINOMEscan™ selectivity screen\nas §3, §2"}},
  "data": [
    {"smiles": "Oc1cc(-c2ccccc2)c2ccccc2n1", "note": "[G7, 4-phenylquinolin-2(1H)-one]", "values": [
      {"measurement": "Percent Control", "setting": "DRAK2", "value": 86, "unit": "%"},
      {"measurement": "Percent Control", "setting": "CAMK1", "value": 84, "unit": "%"},
      {"measurement": "Percent Control", "setting": "MEK4", "value": 93, "unit": "%"},
      {"measurement": "Percent Control", "setting": "WEE1", "value": 100, "unit": "%"},
      {"measurement": "Percent Control", "setting": "ERN1", "value": 69, "unit": "%"},
      {"measurement": "Percent Control", "setting": "[1]", "value": 62, "unit": "%"},
      {"measurement": "Percent Control", "setting": "DMPK", "value": 100, "unit": "%"},
      {"measurement": "Percent Control", "setting": "CSNK1D", "value": 45, "unit": "%"},
      {"measurement": "Percent Control", "setting": "BRAF(V600E)", "value": 71, "unit": "%"},
      {"measurement": "Percent Control", "setting": "DAPK1", "value": 63, "unit": "%"},
      {"measurement": "Percent Control", "setting": "ULK3", "value": 86, "unit": "%"},
      {"measurement": "Percent Control", "setting": "TESK1", "value": 100, "unit": "%"},
      {"measurement": "Percent Control", "setting": "AXL", "value": 42, "unit": "%"},
      {"measurement": "Percent Control", "setting": "MST1", "value": 90, "unit": "%"},
      {"measurement": "phosphorylation of ERK1/2", "setting": "ERK1/2", "value": "neither inhibited"},
      {"measurement": "Percent Control", "setting": "CASK", "value": 89, "unit": "%"},
      {"measurement": "Percent Control", "setting": "STK36", "value": 95, "unit": "%"},
      {"measurement": "Percent Control", "setting": "PIK3CA(E545K)", "value": 98, "unit": "%"},
      {"measurement": "Percent Control", "setting": "ERK3", "value": 92, "unit": "%"},
      {"measurement": "Percent Control", "setting": "SGK", "value": 66, "unit": "%"},
      {"measurement": "Percent Control", "setting": "[2]", "value": 89, "unit": "%"},
      {"measurement": "Percent Control", "setting": "MST1R", "value": 100, "unit": "%"},
      {"measurement": "Percent Control", "setting": "PDPK1", "value": 81, "unit": "%"},
      {"measurement": "Percent Control", "setting": "KIT(V559D)", "value": 20, "unit": "%"},
      {"measurement": "Percent Control", "setting": "PLK4", "value": 80, "unit": "%"},
      {"measurement": "Percent Control", "setting": "LIMK1", "value": 100, "unit": "%"},
      {"measurement": "Percent Control", "setting": "BRAF", "value": 84, "unit": "%"},
      {"measurement": "Percent Control", "setting": "PAK3", "value": 81, "unit": "%"},
      {"measurement": "Percent Control", "setting": "KIT(A829P)", "value": 78, "unit": "%"},
      {"measurement": "Percent Control", "setting": "CSF1R-autoinhibited", "value": 16, "unit": "%"},
      {"measurement": "Percent Control", "setting": "EGFR(L861Q)", "value": 71, "unit": "%"},
      {"measurement": "Percent Control", "setting": "[3]", "value": 61, "unit": "%"},
      {"measurement": "Percent Control", "setting": "AURKB", "value": 91, "unit": "%"},
      {"measurement": "Percent Control", "setting": "GRK7", "value": 52, "unit": "%"},
      {"measurement": "Percent Control", "setting": "[4]", "value": 64, "unit": "%"},
      {"measurement": "Percent Control", "setting": "MAP3K2", "value": 63, "unit": "%"},
      {"measurement": "Percent Control", "setting": "HCK", "value": 100, "unit": "%"},
      {"measurement": "Percent Control", "setting": "SIK2", "value": 78, "unit": "%"}
    ]}
  ]
}
